The results in this text go back to PMC4141193 (FEBS Open Bio, 2014).

For orientation: Ki means a dissociation constant, usually derived from enzyme kinetics or from competition with a known ligand. A high value points to lower affinity. The Kd is the equilibrium constant for the complex coming apart.

The target of assay [1] is X-linked inhibitor of apoptosis protein (XIAP) (Homo sapiens, UniProt P98170). Put plainly: competitive fluorescence polarization with ARPF-FAM probe. In kind it is binding. On the technique in general: Fluorescence polarisation rises when a labelled molecule tumbles more slowly, as on binding a larger partner.
Sequence of X-linked inhibitor of apoptosis protein (XIAP) (P98170 238-359): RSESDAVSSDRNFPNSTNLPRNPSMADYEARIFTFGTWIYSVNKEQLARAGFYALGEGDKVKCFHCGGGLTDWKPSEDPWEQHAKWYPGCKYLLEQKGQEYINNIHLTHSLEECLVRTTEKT
Assay [2] addresses ARPF-K(5-Fam)-NH2-peptide. In words: fluorescence polarisation.

`CCCCCCCCCCCC1=C(O)C(=O)C=C(O)C1=O` [embelin] showed a Ki in assay [1] of 22.3 µM.
“recombinant XIAP-BIR3 domain protein (domain or fragment)” displayed a dissociation constant Kd in assay [2] of 0.145 µM.
